Test results taken from patent US20130096100A1, “DI(ARYLAMINO)ARYL COMPOUND” (ASTELLAS PHARMA INC., priority 2007, published 2013).

Key:
[1] = system: human non-small cell lung cancer cell line NCI-H2228 cells (EML4-ALK fusion protein-expressing cells); assay: Inhibitory effect against anchorage-independent cell growth of NCI-H2228 cells (Test Example 3); assay type: cell-based; conditions: 120 h, spheroid plate, 5 days, CellTiter-Glo
Text: Measurement for anchorage-independent cell growth (colony method, etc) has been known to be a system for investigating the anticancer action (pharmacological effect) of test compounds (Clinical Oncology, second edition, Cancer and Chemotherapy Publishers Inc.). In place of the colony method, there is a following method using spheroid plates for measuring the growth of non-attached cells.
(§1) In a 96-well spheroid plate (Sumilon Celltight Spheroid 96U; Sumitomo Bakelite Co., Ltd., Japan), human non-small cell lung cancer cell line NCI-H2228 cells were seeded at 2000 cells per well in RPMI1640 medium (Invitrogen) containing 10% fetal bovine serum. NCI-H2228 cells are those expressing another EML4-ALK fusion protein, which is different from the EML4-ALK fusion protein v1 because it is encoded by an EML4-ALK fusion polynucleotide whose fusion point on EML4 cDNA is different from that of the EML4-ALK fusion polynucleotide v1, but whose ALK region is the same as that of the EML4-ALK fusion polynucleotide v1. The above NCI-H2228 cells seeded in the plate were cultured overnight under 5% CO2 at 37° C., followed by addition of a test compound (final concentration: 10 μM to 1 nM). As a negative control, DMSO used as a solvent was added at the same concentration as the test compound. Then, the cells were cultured under 5% CO2 at 37° C. for 5 days. A cell counting reagent (CellTiter-Glo™ Luminescent Cell Viability Assay; Promega) was added and agitated for 20 minutes, followed by measurement with a luminometer (ML3000 microtiter plate luminometer; Dynatech Laboratories).

[2] = system: human non-small cell lung cancer cell line HCC827 cells (mutant EGFR protein-expressing cells); assay: Inhibitory effect against anchorage-independent cell growth of HCC827 cells (Test Example 4); assay type: cell-based; conditions: 120 h, spheroid plate, 5 days, CellTiter-Glo
Experimental: as §1
Evaluation of Inhibitory Effect Against Anchorage-Independent Cell Growth of Human Non-Small Cell Lung Cancer Cell Line HCC827 Cells (Mutant EGFR (with Partial Deletion of Exon 19 in EGFR) Protein-Expressing Cells, American Type Culture Collection)
Evaluation was performed in the same manner as shown in Test Example 3.

[3] = target: T1, EML4-ALK fusion protein v1 (Homo sapiens, UniProt Q9UM73, D1529E/I1461V/K1491R); assay: Inhibitory activity against the kinase activity of EML4-ALK fusion protein v1 (Test Example 1); assay type: biochemical; conditions: ATP 100 μM, reaction 1 hour, HTRF KinEASE-TK
T1 construct: FLAG (N); made in house
Experimental: EML4-ALK fusion protein v1 (purified from BA/F3 cells expressing EML4-ALK fusion protein v1) was investigated for its phosphorylation activity toward a peptide substrate by using a kinase activity detection kit (HTRF KinEASE-TK; Cisbio Inc.). […] The ATP concentration used was 100 μM. Another reaction solution was prepared to contain the enzyme protein but no test compound (in which the solvent DMSO alone was added at 0.4% in place of the test compound), followed by reaction in the same manner with or without ATP addition. […] The concentration causing 50% inhibition (IC50) was calculated for each test compound by the logistic regression method.
(§2) N-terminally FLAG-tagged EML4-ALK fusion protein v1 was inserted into a vector pMX-iresCD8 capable of co-expression of insert cDNA and cell surface antigen CD8 (J. Biol. Chem., 2001, vol. 276, p. 39012-39020) to create a vector FLAG-EML4-ALKv1/pMX-iresCD8 expressing both FLAG-EML4-ALKv1 and CD8. FLAG-EML4-ALKv1/pMX-iresCD8 was used to create a recombinant retrovirus in the same manner as described above and infected into mouse lymphoid cell line BA/F3 cells. Using a magnetic bead reagent for cell separation and a purification column (anti-CD8 monoclonal antibody immobilized on magnetic beads and a MiniMACS purification column; both are products of Miltenyi Biotec Inc.), cell surface CD8-expressing cells were purified conveniently. […] After washing 3 times with PBS, the cells were lysed in a lysis solution (50 mM Tris.HCl (pH 7.4), 150 mM NaCl, 1% Triton X100, 5 mM EDTA, 5 mM EGTA, 1 mM NaVO4, 1 mM DTT and protease inhibitor cocktail complete). The EML4-ALK fusion protein v1 present in the supernatant obtained after centrifugation was purified using ANTI-FLAG M2 Affinity Gel (SIGMA-ALDRICH Inc.) according to the method described in the product information document.
(§3) The EML4-ALK fusion protein v1 purified as above was investigated for its phosphorylation activity toward a peptide substrate using a kinase activity detection kit (HTRF KinEASE-TK; Cisbio Inc.). Using TK substrate 1, which was included in the kit, as the substrate, and after adding no ATP or 100 μM ATP, the mixtures were reacted at room temperature for 1 hour, and the count of HTRF was detected as recommended by the Kits manufacturer.

[4] = target: T1, EML4-ALK fusion protein v1; assay: Inhibitory effect of compounds against the in vitro kinase activity of EML4-ALK fusion protein v1, IC50 (Test Example 14); assay type: biochemical; conditions: 8 concentrations 1000 nM to 0.3 nM
Experimental: In the same manner as shown in Test Example 12(3), compounds were investigated for their inhibitory effect against the in vitro kinase activity of EML4-ALK fusion protein v1 using the kinase activity detection kit mentioned above. Test compounds were each added to a reaction solution containing the EML4-ALK fusion protein v1 to give 8 final concentrations from 1000 nM to 0.3 nM, followed by addition of ATP. Another reaction solution was prepared to contain the EML4-ALK fusion protein v1 but no test compound (in which the solvent DMSO alone was added at 0.4% in place of the test compound), followed by reaction with or without ATP addition. The rest of the operations were carried out as described in Test Example 12(2). […] The concentration causing 50% inhibition (IC50) was calculated for each test compound by the logistic regression method.

88 types of kinases = assay: Kinase inhibition profiling, 88 types of kinases (Test Example 6); assay type: biochemical; conditions: concentration of 100 nM
[5] = system: HCC-827 cells (mutant EGFR protein-expressing cells); conditions: conditions of Non-patent Document 6; cited from earlier work
[6] = Toxicity test in rats, 7-day repeated oral administration (Test Example 5); assay type: in vivo, SD rats; conditions: 7 days; for Dose: Bone marrow inhibition / Dose: Exacerbation of common symptoms / Non-toxic dose: oral; for Dose: Moribund condition: SD, rat, in vivo, po
Text: Test compounds were each suspended in a 0.5% aqueous methylcellulose solution and repeatedly administered to SD rats (two females and four males in each group) by the oral route at each dose for 7 days.

MER = target: T2, MER (Homo sapiens, UniProt Q12866); assay: Kinase inhibition profiling, MER (Test Example 6); assay type: biochemical; conditions: 100 nM; read-out: inhibitory activity against MER
T2 construct: purchased Carna Biosciences Inc., Japan (contract measurement)
T2 sequence (Q12866 21-999): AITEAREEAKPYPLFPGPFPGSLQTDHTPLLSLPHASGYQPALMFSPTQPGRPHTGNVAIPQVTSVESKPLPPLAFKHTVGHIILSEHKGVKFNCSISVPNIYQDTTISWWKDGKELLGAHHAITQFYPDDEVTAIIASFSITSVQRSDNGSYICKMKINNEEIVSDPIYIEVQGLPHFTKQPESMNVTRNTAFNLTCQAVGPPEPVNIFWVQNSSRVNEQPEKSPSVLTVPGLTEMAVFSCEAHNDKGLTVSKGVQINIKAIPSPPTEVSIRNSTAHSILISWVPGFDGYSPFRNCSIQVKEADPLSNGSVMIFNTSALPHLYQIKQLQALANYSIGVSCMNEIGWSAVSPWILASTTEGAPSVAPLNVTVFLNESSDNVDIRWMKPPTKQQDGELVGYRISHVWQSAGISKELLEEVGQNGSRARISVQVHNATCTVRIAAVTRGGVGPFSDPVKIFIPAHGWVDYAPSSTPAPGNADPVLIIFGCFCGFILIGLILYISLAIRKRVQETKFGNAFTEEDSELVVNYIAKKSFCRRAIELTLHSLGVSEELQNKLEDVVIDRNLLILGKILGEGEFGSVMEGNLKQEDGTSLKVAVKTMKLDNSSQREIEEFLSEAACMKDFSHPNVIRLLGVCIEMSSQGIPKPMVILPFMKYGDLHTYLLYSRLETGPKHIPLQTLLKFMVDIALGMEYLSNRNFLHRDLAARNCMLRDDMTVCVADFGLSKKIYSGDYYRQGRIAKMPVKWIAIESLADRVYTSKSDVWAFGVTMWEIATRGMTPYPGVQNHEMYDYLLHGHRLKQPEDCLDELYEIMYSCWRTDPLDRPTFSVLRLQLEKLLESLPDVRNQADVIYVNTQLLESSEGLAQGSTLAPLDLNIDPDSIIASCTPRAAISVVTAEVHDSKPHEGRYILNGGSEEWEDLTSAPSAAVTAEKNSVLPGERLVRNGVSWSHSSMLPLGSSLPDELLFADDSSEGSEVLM

MUSK = target: T3, MUSK (Homo sapiens, UniProt O15146); assay: Kinase inhibition profiling, MUSK (Test Example 6); assay type: biochemical; parameters: purchased Carna Biosciences Inc., Japan (contract measurement); conditions: 100 nM; read-out: inhibitory activity against MUSK
T3 sequence (O15146 24-869): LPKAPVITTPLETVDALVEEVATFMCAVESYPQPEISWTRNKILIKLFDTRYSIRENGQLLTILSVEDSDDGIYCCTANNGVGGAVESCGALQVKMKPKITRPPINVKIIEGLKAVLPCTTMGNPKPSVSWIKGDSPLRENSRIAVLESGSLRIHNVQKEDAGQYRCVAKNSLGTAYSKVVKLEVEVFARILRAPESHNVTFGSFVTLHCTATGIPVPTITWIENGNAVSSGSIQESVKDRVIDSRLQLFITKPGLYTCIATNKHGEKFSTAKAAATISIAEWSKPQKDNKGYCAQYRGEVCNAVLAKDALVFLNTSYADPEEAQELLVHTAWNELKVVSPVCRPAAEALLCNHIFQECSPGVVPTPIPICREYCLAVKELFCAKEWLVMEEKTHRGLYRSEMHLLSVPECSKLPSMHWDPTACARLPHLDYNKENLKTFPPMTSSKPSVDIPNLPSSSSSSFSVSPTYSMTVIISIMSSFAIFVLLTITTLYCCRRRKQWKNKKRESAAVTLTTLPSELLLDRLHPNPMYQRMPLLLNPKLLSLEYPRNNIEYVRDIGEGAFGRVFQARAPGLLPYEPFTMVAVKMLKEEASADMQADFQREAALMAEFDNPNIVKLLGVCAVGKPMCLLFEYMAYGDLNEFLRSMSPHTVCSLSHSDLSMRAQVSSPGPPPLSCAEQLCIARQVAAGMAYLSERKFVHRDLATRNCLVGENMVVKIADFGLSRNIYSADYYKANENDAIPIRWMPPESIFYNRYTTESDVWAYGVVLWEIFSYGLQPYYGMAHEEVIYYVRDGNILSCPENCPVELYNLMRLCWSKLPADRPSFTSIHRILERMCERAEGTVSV

MNK1 = target: T4, MNK1 (Homo sapiens, UniProt Q9BUB5); assay: Kinase inhibition profiling, MNK1 (Test Example 6); assay type: biochemical; conditions: 100 nM; read-out: inhibitory activity against MNK1
T4 construct: purchased Carna Biosciences Inc., Japan (contract measurement)

[7] = target: T1, EML4-ALK fusion protein v1; assay: Inhibitory effect of compounds against the in vitro kinase activity of EML4-ALK fusion protein v1, single concentration (Test Example 12(3)); assay type: biochemical; conditions: final concentration 10 nM
Text: as §2, §3

[8] = system: v1 expressing 3T3 cells (tumor); assay: Antitumor effect on v1 expressing 3T3 cells inoculated in nude mice (Test Example 13); assay type: in vivo; conditions: once a day for 10 days, started 6 days after inoculation, BALB/c nude mice
Experimental: 3×10^6 cells of v1 expressing 3T3 cells suspended in PBS were inoculated subcutaneously by injection to the back of 5 weeks old male BALB/c nude mice (Charles River Japan, Inc.). […] Administrations were performed once a day for 14 days, and body weight and tumor size were measured every other day. Tumor volume was calculated using the following formula.
[Tumor volume (mm^3)]=[Tumor major axis (mm)]×[tumor minor axis (mm)]^2×0.5
The antitumor effect of compound D was investigated by the similar procedure with the following exceptions. The administration of the compound was started after 6 days of the inoculation and carried out once a day for 10 days.

T1 sequence (Q9UM73 with tags, fused parts or gaps I1461V/K1491R/D1529E): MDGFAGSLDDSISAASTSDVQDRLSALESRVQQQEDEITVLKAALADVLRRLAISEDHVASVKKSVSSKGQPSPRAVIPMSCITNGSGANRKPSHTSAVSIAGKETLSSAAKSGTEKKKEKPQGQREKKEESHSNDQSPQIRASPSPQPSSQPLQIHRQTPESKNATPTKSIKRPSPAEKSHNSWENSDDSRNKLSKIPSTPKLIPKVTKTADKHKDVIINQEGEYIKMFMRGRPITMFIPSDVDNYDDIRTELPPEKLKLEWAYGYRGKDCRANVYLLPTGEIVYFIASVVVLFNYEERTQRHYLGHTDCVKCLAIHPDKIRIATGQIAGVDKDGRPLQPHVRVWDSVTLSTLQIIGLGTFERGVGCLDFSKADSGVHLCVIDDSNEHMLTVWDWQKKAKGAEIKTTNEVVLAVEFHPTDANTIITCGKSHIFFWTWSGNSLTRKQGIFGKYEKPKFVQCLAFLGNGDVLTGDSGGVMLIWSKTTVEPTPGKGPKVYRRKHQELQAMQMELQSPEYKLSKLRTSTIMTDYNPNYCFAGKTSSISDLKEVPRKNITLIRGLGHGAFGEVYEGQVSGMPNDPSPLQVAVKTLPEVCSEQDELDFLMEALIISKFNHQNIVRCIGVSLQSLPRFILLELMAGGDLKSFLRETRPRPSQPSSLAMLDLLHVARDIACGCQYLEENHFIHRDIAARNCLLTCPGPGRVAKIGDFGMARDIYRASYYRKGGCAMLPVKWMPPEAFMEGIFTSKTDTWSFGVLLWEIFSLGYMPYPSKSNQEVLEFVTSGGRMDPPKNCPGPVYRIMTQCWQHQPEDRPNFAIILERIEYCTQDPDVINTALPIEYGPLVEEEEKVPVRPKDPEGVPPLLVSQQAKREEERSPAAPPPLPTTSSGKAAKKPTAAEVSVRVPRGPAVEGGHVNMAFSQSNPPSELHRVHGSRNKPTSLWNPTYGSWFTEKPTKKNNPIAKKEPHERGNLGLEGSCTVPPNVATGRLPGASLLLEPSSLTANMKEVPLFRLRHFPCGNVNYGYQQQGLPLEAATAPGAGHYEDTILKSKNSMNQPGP
T4 sequence (Q9BUB5 whole entry): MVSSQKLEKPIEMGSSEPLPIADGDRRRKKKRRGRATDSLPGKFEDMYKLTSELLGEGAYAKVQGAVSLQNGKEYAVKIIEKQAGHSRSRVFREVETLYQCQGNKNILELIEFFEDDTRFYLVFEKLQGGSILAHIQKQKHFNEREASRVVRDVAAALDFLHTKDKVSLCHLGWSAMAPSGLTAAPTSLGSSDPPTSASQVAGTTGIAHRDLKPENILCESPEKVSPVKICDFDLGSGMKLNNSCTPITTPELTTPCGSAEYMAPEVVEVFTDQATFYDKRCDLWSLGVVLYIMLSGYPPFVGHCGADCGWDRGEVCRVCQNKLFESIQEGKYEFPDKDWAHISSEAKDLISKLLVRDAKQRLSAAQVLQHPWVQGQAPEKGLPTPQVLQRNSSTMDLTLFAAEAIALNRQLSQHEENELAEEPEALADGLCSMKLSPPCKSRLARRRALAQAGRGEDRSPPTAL

SMILES | IC50 [1] | IC50 [2] | IC50 [3] | IC50 [4] | number of types of kinases (of 88) with 50% or more inhibitory activity (88 types of kinases) | growth inhibitory activity, inhibition rate [5] | Dose: Bone marrow inhibition ([6]; female SD rats (2 rats)) | Dose: Exacerbation of common symptoms ([6]; female SD rats (2 rats)) | Non-toxic dose ([6]; female SD rats (2 rats)) | Dose: Moribund condition ([6]; female) | Dose: Bone marrow inhibition ([6]; male SD rats (4 rats)) | Dose: Exacerbation of common symptoms ([6]; male SD rats (4 rats)) | Non-toxic dose ([6]; male SD rats (4 rats)) | Dose: Moribund condition ([6]; male) | inhibition at 0.1 µM (MER) | inhibition at 0.1 µM (MUSK) | inhibition at 0.1 µM (MNK1) | inhibition at 0.01 µM [7] | inhibition of the growth of v1 expressing 3T3 cells (tumor) [8]
COc1cc(N2CCC(N3CCN(C)CC3)CC2)ccc1Nc1nc(Nc2ccccc2S(=O)(=O)C(C)C)c2ccccc2n1 [Example 1, N^4-[2-(isopropylsulfonyl)phenyl]-N^2-{2-methoxy-4-[4-(4-methylpiperazin-1-yl)piperidin-1-yl]phenyl}quinazoline-2,4-diamine] | 473 nM | 2510 nM | 42 nM | 42 nM | – | – | – | – | – | – | – | – | – | – | – | – | – | – | –
COc1cc(N2CCC(N3CCN(C)CC3)CC2)ccc1Nc1ncc(Cl)c(Nc2ccccc2S(=O)(=O)C(C)C)n1 [TAE684, 5-chloro-N^4-[2-(isopropylsulfonyl)phenyl]-N^2-{2-methoxy-4-[4-(4-methylpiperazin-1-yl)piperidin-1-yl]phenyl}pyrimidine-2,4-diamine, reference compound] | 8.5 nM | 301 nM | – | – | 29 types of kinases | 7.5% | 10 mg/kg | 30 mg/kg | 3 mg/kg | 100 mg/kg | 10 mg/kg | 100 mg/kg | 3 mg/kg | (>100) mg/kg | ≥ 90% | ≥ 90% | 4.8% | – | –
CNS(=O)(=O)c1ccccc1Nc1nc(Nc2ccc(N3CCN(C)CC3)cc2OC)ncc1Br [Compound D, 2-[(5-bromo-2-{[2-methoxy-4-(4-methylpiperazin-1-yl)phenyl]amino}pyrimidin-4-yl)amino]-N-methylbenzenesulfonamide] | – | – | – | – | – | – | – | – | – | – | – | – | – | – | – | – | – | 99% | 101%
